Experiment [1] concerns HIV IIIB virus. Briefly: Antiviral challenge assay, HIV IIIB replication in H9 or CEM cells, p24. Format: cell-based, HIV-1. The conditions noted are these: for inhibition of HIV replication (p24) / suppression of HIV replication (p24): HIV IIIB, 7 days; for inhibition of HIV replication (p24): 10 μM AZT; for suppression of HIV replication (p24): 15 μM pentamidine. The procedure: H9 cells or CEM cells were challenged with HIV IIIB virus in the absence (PC) or presence of 15 μM pentamidine (PTD) or 10 μM AZT. Cells were grown for 7 days and the concentration of p24 were determined and the inhibition percentage were calculated. FIG. 13B: H9 cells or CEM cells were challenged with HIV IIIB virus in the absence or presence of varying concentration of pentamidine (PTD) or AZT. Cells were grown for 7 days and the concentration of p24 were determined.
The next experiment examined whether pentamidine could inhibit HIV replication in vivo. The H9 cells and CEM cells were challenged with HIV IIIB virus in the absence or presence of 15 μM pentamidine or 10 μM AZT, a HIV reverse transcriptase inhibitor.
Antiviral challenge assays using infectious laboratory and other HIV-1 strains: Appropriate cells, screened for viability and growth kinetics, are challenged with HIV-1 strain IIIB, NL4-3, JRFL or primary isolates. This is a modification of a standard method described by Ho (Ho 1991) for virus neutralization. The resultant inoculum is titrated by ID50 in uninfected CEM, H9 or PBMC cultures. 0.01 MOI HIV is inoculated onto 10^6 candidate cells for six hours at 37° C., and then washed three times with PBS. For screening assays, each cell culture supernatant is examined on day seven post infection and examined for reverse transcriptase activity or p24 concentration. For confirmation assays, cultures are followed for day 7, 14, 21 and 28 observations. Cells are fed twice weekly by removing one-half of the media. Viral inhibition is defined >50% reduction in RT activity or p24 compared with control culture, which were mock-treated.

For experiment [2], the target named is FEN-1 (Homo sapiens, UniProt P39748). Description: FEN-1 nuclease assay with HIV CDF and regular 5′ flap model substrates. Format: biochemical. The protocol: 0.25 or 0.5 pmol of purified recombinant FEN-1 were mixed with 1 pmol of regular 5′ flap substrate with a 3′ flap of single nucleotide or HIV CDF substrate, respectively in the presence of 0, 0.1, 0.2, 0.4, 0.6, 0.8, and 1.0 mM pentamidine isethionate salt. The reaction was carried out at 37° C. for 30 minutes. Substrates and products were analyzed with DNA sequencing PAGE and visualized with radio-autograph (upper panel). The amount of cleavage products and non-cleaved substrates were quantified with ImagineQuant and were shown in the bottom panel.
One pmol of HIV CDF substrate were mixed with 0, 0.01, 0.1, 1, and 3 pmol of purified recombinant FEN-1 in the absence or presence of 0.4 mM pentamidine isethionate salt. The reaction was carried out at 37° C. for 30 minutes. Substrates and products were analyzed with DNA sequencing PAGE and visualized with radio-autograph (upper panel). The amount of cleavage product and non-cleaved substrate were quantified with ImagineQuant and were shown in the bottom panel.
FIG. 12 is a graph line and chart showing kinetic analysis of FEN-1 cleavage of HIV CDF substrates in the absence and presence of pentamidine. 1 pmol of FEN-1 was incubated with 0, 0.125, 0.25, 0.375, 0.5, 1, and 2 pmol of HIV CDF substrates. The reaction were carried out at 37° C. for 10 min. The amount of cleavage product and non-cleaved substrate were quantified with ImagineQuant. The Michaelis-Menten kinetic parameters Km and Kcat (Bottom panel) were calculated with double-reciprocal plots of 1/v versus 1/[s] (Upper panel).
Nuclease assays. DNA model substrates were prepared as previously described (Zheng 2005). FEN-1 nuclease and/or D181A mutant was incubated with 1 pmol of indicated DNA substrates at 30° C. for 15 minutes. DNA substrates and products were separated in DNA sequencing PAGE and visualized with autoradiography.
Finally, the third criteria is in vitro inhibition of HIV-CDF processing. The inhibition of FEN-1 cleavage of HIV-CDF and regular 5′ flap structures by molecules selected after criteria 2 are examined in this test. Only the molecules that inhibit FEN-1 cleavage of HIV-CDF but not the regular 5′ flap structures are qualified for in vivo studies. The inhibition efficacy of HIV replication in H9 and CEM T cell lines by small molecules is determined with the HIV reverse transcriptase inhibitor AZT used as an inhibition control.

The test system of experiment [3] is HIV-1 strain NL4-3 and III B. Briefly: HIV-1 replication in CEM T-cells over-expressing FEN-1 or D181A, secreted p24. Format: cell-based. The protocol:
In order to test the effects of FEN-1 function on HIV replication in its natural host cells, human T-cells, the CEM cells with the same construct shown in FIG. 4A were transfected under selection of G418. CEM cells (C), CEM cells expressing the c-myc-tagged hFEN-1 (F), or D181A mutant (A) were seeded at 0.5×10^4 cells per well in a 12-well plate. Duplicate plates were prepared for each cell line. The cells were challenged with two HIV-1 strains: NL4-3 and III B. Virus challenge proceeded at both 50 TCID50 and 5 TCID50. The cell culture supernatants were collected and the HIV-1 p24 was measured weekly for four weeks post-infection.
HIV-1 replication in CEM cells. CEM cells, or CEM cells infected with the hFEN-1 or D181A retroviral vector, were seeded at 0.5×10^4 cells per well of a 12-well plate. Duplicate plates were prepared for each cell line. The cells were challenged with HIV-1 strain NL4-3 and III B. Viral challenge was conducted at both 50 TCID50. Cell culture supernatants were collected and the HIV-1 p24 was measured weekly for four weeks post-infection. Syncytium formation due to the HIV-1 infection was monitored, and cells were photographed under a microscope weekly (FIGS. 6-7).

Experiment [4] relates to HIV-1 vector HXB2-Hyg. Briefly: HIV-1 infection colony assay (hygromycin-resistant colonies) in HeLa CD4+ cells. Format: cell-based. As to conditions: compared to control HeLa CD4+ cells. The procedure:
The cells are infected with a modified HIV-1 virus. Upon integration, the infected cells become hygromycin-resistant due to the expression of the drug-resistant gene from the proviral DNA. The integration efficiency is then determined by counting the colonies selected on Hygromycin B. The integration is confirmed by LTR-Tag assay.
A modified HIV-1 virus vector derived from strain HXB2 (HXB2-Hyg) with a newly created Bpm I site near the end of the U5 region in its 5′ LTR is prepared. This virus genome also contains a hygromycin-resistant gene for selecting virus-infected cells. This VSV-G pseudotyped virus is used to infect LaD cells along with LaF and LaP cells with m.o.i. of 1.0. The infected cells are cultured in a medium containing 200 μg/ml of Hygromycin B for 2 weeks. The virus-infected cells with the stable integrated provirus are hygromycin-resistant and grow into colonies. The colonies are stained with 0.2% crystal violet in 10% phosphate-buffered formalin (pH 7.0) and counted.
An LTR-Tag analysis method is used to detect HIV integration. […] For this reason, there are many fewer ^32P-labeled LTR-Tags prepared from the D181A overexpressing LaD cells in comparison to the radioactivity-labeled LTR-Tags prepared from the LaP cells. […]
HIV-1 infection colony assay. […] Hygromycin-resistant colonies were stained with 0.2% crystal violet in 70% ethanol, and the number of colonies was counted.

Experiment [5] has as its system HIV-1 cDNA integration. Briefly: HIV-1 integration assay, Southern blot hybridization of host genomic DNA. Format: cell-based. The conditions noted are these: expression in HeLa cells. The protocol:
To further validate that inhibition of FEN-1 nuclease activity reduced HIV-1 cDNA integration, genomic DNA was isolated and the integration of viral cDNA into the host genome was detected by Southern blot hybridization. […] Both of the experiments indicate that the integration of HIV may be impaired under a FEN-1 deficient background.
HIV-1 integration assay. Genomic DNA was isolated from HIV-1 infected cells according to a previous protocol (Chen 1998). 20 μg of DNA was digested with EcoRV and BamHI and resolved on a native agarose gel. A 0.8 kb of HIV-1 specific DNA fragment, released by digestion of HIV cDNA with BamHI and BgIII, was used as a probe in Southern blot hybridization.

Setting [6] is: in the presence of 400 μM of pentamidine.

Here are results for three molecules from patent US7927790B2, “Suppression of HIV-1 replication via inhibition of human flap endonuclease-1-mediated HIV-1 central DNA flap processing” (priority 2005, dated 2011).

Entries after “also recorded” stand apart in the source; their conditions may differ.

Sequence of FEN-1 (P39748 whole entry): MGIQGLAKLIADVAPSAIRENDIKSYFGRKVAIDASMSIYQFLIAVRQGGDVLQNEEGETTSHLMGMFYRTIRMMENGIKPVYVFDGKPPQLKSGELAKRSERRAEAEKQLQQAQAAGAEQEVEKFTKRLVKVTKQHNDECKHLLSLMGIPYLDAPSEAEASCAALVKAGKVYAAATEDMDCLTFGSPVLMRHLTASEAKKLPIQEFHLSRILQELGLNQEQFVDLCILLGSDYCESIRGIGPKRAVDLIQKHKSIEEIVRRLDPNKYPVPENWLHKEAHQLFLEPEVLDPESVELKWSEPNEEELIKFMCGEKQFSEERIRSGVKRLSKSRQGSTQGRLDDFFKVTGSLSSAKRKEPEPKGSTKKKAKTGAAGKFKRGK

In the case of `Cc1cn([C@H]2C[C@H](N=[N+]=[N-])[C@@H](CO)O2)c(=O)[nH]c1=O` [AZT], the “inhibition of HIV replication (p24)” value is given as 98.6% in experiment [1] (CEM cells) and 100% in experiment [1] (H9 cells).
With `N=C(N)c1ccc(OCCCCCOc2ccc(C(=N)N)cc2)cc1` [pentamidine], in experiment [1] (CEM cells), the “suppression of HIV replication (p24)” value came out at 69.3%. For the same molecule, in experiment [1] (H9 cells), the “suppression of HIV replication (p24)” value came out at 98.8%. In addition, in experiment [1] (T-cell lines), the “inhibitory effect on HIV replication compared with AZT” value is on record as “equal to or more effective than AZT; also recorded: equivalent to AZT”. For the same molecule, the “inhibitory effect on HIV-1 replication relative to AZT” value in experiment [1] (another T-cell line) is recorded as “about 70 % that of AZT”. Besides, the “effect on FEN-1 cleavage of regular 5′ flap structures resembling RNA-DNA primers” value in experiment [2] was “little effect”. Besides, the “effect on kcat and Km of FEN-1 cleavage of HIV CDF substrates” value in experiment [2] (Michaelis-Menten, double-reciprocal plots, 37° C., 10 min) is “decrease”. The “cleavage of both HIV CDF and regular 5′ flap substrates” value in experiment [2] (concentrations higher than 1 mM) is “completely inhibited”. In experiment [2] (setting [6]), the “FEN-1's activity cleaving regular 5′ flap substrates retained” value is “greater than 80%” and the “FEN-1 cleavage of HIV CDF structures suppressed” value is given as 90%.
On to “D181A: dominant negative point mutant of human FEN-1, binds flap DNA but deficient in catalysis and nuclear localization”, for which, in experiment [3] (stable T-cell lines over-expressing the mutant), the “HIV-1 replication suppressed, secreted HIV p24 protein concentrations” value was “more than 99.9%”. Further, the “HIV inhibition, culture supernatant p24” value in experiment [3] (transduced CEM cells, HIVIIIB and HIVNL4-3, weekly for four weeks) is “strong HIV inhibition”. In addition, in experiment [4], the “decrease of HIV-1 integration, hygromycin-resistant CFUs” value is given as “more than 95 % CFUs”. For the same molecule, in experiment [5], the “HIV-1 cDNA integration into host genome” value is recorded as “significantly decreased”. In addition, the “inhibition of wild type FEN-1 flap endonuclease activity in vitro” value in experiment [2] (HIV CDF substrate, mutant 8-10 folds higher than wild type protein concentration) was “almost completely inhibit”. In addition, in experiment [2] (d-flap substrates, model for host cell RNA primer removal), the “inhibition of FEN-1 activity with d-flap substrates” value was “does not inhibit”.
